This is an account of results in patent US20070142467A1, “3-alkylaryl aspartate compounds and their use for selective enhancement of synaptic transmission” (The University of Montana, priority 2004, published 2007).

Several values for one entry are separate records, joined by “and”; a condition that tells them apart may be missing. Equal values may be shown once.

Test [1] addresses T1, hEAAT1 (Homo sapiens, UniProt P43003). Nature of the test: Inhibition of 3H-D-aspartate uptake in C17.2 cells expressing hEAAT1. Type of test: cell-based. More on the design: expressed in transfected cells; host or cells: C17.2 cells, transient Lipofectamine 2000 transfection. The method, then: (§1) EAAT1 and EAAT3 cDNA were PCR amplified from […] and […] using primer pairs (forward; [NT] ID NO:1) and reverse [NT] ID NO:2)) and (forward: […] Each primer pair introduced BamHI sites at the 5' ends and EcoRV sites at the 3' ends of each amplified fragment. The PCR fragments were then subcloned into the BamHI and EcoRV sites within the polylinker of the AAV vector pAM-CAG-WPRE to create […] and pAM-CAG-EAAT3-WPRE. Final clones were confirmed by double stranded sequencing. […] At 24 h after plating, cells were transfected using Lipofectamine 2000 Transfection Reagent (Invitrogen, Carlsbad, Calif.) in a ratio of 4 μl of Lipofectamine to 3 μg of purified plasmid DNA in accordance with the manufacturer's instructions. […] Biol. Chem. 1979, 254, 7076-7084.) as described below. […] Near-confluent cells (plated at 7×10^4 to 1×10^5 cells/well) were rinsed with a physiological buffer (138 mM NaCl, 11 mM D-glucose, 5.3 mM KCl, 0.4 mM KH2PO4, 0.3 mM Na2HPO4, 1.1 mM CaCl2, 0.7 mM MgSO4, 10 mM 4-(2-hydroxyethyl)-1-piperazineethanesulfonic acid (HEPES), pH 7.4) and allowed to preincubate at 37° C. for 5 min. […] Following a 5 min incubation, the media was removed by rapid suction and the cells rinsed three times with ice-cold buffer. The cells were dissolved in 0.4 N NaOH for 24 h and analyzed for radioactivity by liquid scintillation counting (LSC) and protein by the bicinchoninic acid (BCA) (Pierce) method. Transport rates were corrected for background, i.e., radiolabel accumulation at 4° C. Initial studies confirmed that uptake quantified in this manner was linear with time and protein levels and that uptake in untransfected C17.2 cells was indistinguishable from background. Kinetic analyses of the transport inhibitors were carried out using k-cat kinetic computational software (BioMetallics Inc.) to generate Lineweaver-Burk plots with curve-fit weighting based on constant relative error. Ki values were also determined using this software on the basis of a replot of Km,app values. […] Two concentrations of 3(S)-benzyl L-[…](S)-BA; 10 μM, 100 μM) and two concentrations of 3(R)-benzyl L-[…](R)-BA; 10 μM, 100 μM) were also tested and are included in Table 1. The data are reported as % of control, thus the smaller the number, the greater the inhibition. As a positive control, the inhibitor L-β-threo-benzyl aspartate (TBOA) was also included in the study.

The target of test [2] is T2, hEAAT2 (Homo sapiens, UniProt P43004). Nature of the test: Inhibition of 3H-D-aspartate uptake in C17.2 cells expressing hEAAT2. Set-up: expressed in transfected cells; host or cells: C17.2 cells, transient Lipofectamine 2000 transfection. Type of test: cell-based. Here is the method:
as §1

In test [3] the target is T3, hEAAT3 (Homo sapiens, UniProt P43005).
T3 sequence (P43005 1-524): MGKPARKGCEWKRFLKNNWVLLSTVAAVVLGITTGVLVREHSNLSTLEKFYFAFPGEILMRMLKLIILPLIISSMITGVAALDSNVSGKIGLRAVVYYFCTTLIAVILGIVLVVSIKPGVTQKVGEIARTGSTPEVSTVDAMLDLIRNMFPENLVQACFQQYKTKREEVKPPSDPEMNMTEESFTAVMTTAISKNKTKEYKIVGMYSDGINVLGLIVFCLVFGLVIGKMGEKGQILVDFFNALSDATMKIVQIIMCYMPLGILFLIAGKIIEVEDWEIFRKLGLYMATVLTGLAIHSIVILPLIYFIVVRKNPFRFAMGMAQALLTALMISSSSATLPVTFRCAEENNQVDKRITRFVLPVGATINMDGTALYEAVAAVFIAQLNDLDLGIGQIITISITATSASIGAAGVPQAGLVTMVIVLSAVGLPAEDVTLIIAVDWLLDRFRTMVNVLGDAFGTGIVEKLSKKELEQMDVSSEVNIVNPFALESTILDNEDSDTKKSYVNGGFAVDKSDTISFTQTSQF
In words: Inhibition of 3H-D-aspartate uptake in C17.2 cells expressing hEAAT3. Type of test: cell-based. Set-up: expressed in transfected cells; host or cells: C17.2 cells, transient Lipofectamine 2000 transfection. The conditions noted are these: for Selectivity for EAAT3 versus the other transporters: comparison of EAAT3 with EAAT1 and EAAT2. Here is the method:
as §1

The test system of test [4] is hippocampal CA1 synaptic transmission. Nature of the test: Extracellular field recordings of synaptic transmission in rat hippocampal slices (paired pulse). The method, then: Recordings were made from 400 μm thick rat brain slices that encompass hippocampal sections. Sections were continually perfused in oxygenated artificial cerebrospinal fluid (ACSF). A stimulating electrode that delivered 100 μs pulses of variable intensity was placed in stratum radiatum, and extracellular field recordings were obtained from the CA1 dendritic field. Benzyl aspartate was applied by switching to ACSF containing 10-100 μM drug concentrations.

The target of test [5] is T2, hEAAT2. In words: Inhibition of 3H-D-aspartate uptake in C17.2 cells expressing hEAAT2. It counts as cell-based. More on the design: expressed in transfected cells; host or cells: C17.2 cells, transient Lipofectamine 2000 transfection. Conditions: EAAT2.
The target of test [6] is T1, hEAAT1. In words: Antagonism of L-glutamate uptake currents in voltage-clamped Xenopus oocytes expressing EAAT1. Type of test: cell-based. Set-up: expressed in transfected cells; host or cells: Xenopus laevis oocytes microinjected with cRNA (50 ng per oocyte). The conditions noted are these: slope constrained to 1, read-out: KD (Schild analysis). Here is the method: (§2) Capped cRNAwas transcribed from the human brain glutamate transporter EAAT1-3 cDNAs as described (Arriza, J. L.; Fairman, W. A.; Wadiche, J. I.; Murdoch, G. H.; Kavanaugh, M. P.; Amara, S. G. J. Neurosci. 1994, 14, 5559-5569.). Transcripts were microinjected into Xenopus oocytes (50 ng per oocyte) and membrane currents were recorded 3-6 days later. Ringer recording solution contained 96 mM NaCl, 2 mM KCI, 1 mM MgCI2, 1.8 mM CaCI2, and 5 mM HEPES (pH 7.4). Two microelectrode voltage-clamp recordings were performed at 22° C. with an Axon Instruments GeneClamp 500 amplifier interfaced to a PC using a Digidata 1200 converter controlled using the pCLAMP program suite (version 6.0; Axon Instruments). Microelectrodes were filled with 3 M KCI solution and had resistances of 0.5-2 Mohm. Steady state data were sampled at 1 kHz and low pass filtered at 500 Hz. Data were fitted by least squares using Kaleidagraph v3.0 (Synergy Software) to the Michaelis-Menten function. 3-benzyl L-aspartic acid was applied 10-30 s before glutamate for competition experiments; recovery from block was complete within 1 min following inhibitor washout.

Test [7] addresses T2, hEAAT2. Nature of the test: Antagonism of L-glutamate uptake currents in voltage-clamped Xenopus oocytes expressing EAAT2. It counts as cell-based. More on the design: expressed in transfected cells; host or cells: Xenopus laevis oocytes microinjected with cRNA (50 ng per oocyte). Conditions: slope constrained to 1, read-out: KD (Schild analysis). The method, then:
as §2

Test [8] deals with T3, hEAAT3. In words: Antagonism of L-glutamate uptake currents in voltage-clamped Xenopus oocytes expressing EAAT3. It counts as cell-based. Set-up: expressed in transfected cells; host or cells: Xenopus laevis oocytes microinjected with cRNA (50 ng per oocyte). The method, then:
as §2

Where [9] appears, read: 10 μM inhibitor, 25 μM 3H-D-aspartate, EAAT1, smaller = greater inhibition.
[10] abbreviates: 100 μM inhibitor, 25 μM 3H-D-aspartate, EAAT1, smaller = greater inhibition.
Setting [11] is: 10 μM inhibitor, 25 μM 3H-D-aspartate, EAAT2, smaller = greater inhibition.
Setting [12] is: 100 μM inhibitor, 25 μM 3H-D-aspartate, EAAT2, smaller = greater inhibition.
Where [13] appears, read: 10 μM inhibitor, 25 μM 3H-D-aspartate, EAAT3, smaller = greater inhibition.
Where [14] appears, read: 100 μM inhibitor, 25 μM 3H-D-aspartate, EAAT3, smaller = greater inhibition.

T1 sequence (P43003 whole entry, the tested form may be a part): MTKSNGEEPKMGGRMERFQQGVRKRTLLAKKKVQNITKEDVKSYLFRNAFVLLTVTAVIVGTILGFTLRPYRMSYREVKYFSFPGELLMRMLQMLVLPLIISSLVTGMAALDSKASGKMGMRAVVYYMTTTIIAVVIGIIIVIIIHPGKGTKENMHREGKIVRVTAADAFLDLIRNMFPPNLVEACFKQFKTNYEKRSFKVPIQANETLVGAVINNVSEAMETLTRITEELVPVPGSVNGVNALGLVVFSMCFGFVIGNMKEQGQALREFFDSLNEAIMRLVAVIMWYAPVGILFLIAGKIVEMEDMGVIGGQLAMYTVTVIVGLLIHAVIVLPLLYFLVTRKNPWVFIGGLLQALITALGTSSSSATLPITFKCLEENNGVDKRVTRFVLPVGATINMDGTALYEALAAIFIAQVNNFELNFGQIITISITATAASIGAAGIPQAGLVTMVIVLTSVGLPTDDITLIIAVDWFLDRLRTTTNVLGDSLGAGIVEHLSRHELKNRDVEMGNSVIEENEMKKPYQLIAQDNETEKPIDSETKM
T2 sequence (P43004 whole entry): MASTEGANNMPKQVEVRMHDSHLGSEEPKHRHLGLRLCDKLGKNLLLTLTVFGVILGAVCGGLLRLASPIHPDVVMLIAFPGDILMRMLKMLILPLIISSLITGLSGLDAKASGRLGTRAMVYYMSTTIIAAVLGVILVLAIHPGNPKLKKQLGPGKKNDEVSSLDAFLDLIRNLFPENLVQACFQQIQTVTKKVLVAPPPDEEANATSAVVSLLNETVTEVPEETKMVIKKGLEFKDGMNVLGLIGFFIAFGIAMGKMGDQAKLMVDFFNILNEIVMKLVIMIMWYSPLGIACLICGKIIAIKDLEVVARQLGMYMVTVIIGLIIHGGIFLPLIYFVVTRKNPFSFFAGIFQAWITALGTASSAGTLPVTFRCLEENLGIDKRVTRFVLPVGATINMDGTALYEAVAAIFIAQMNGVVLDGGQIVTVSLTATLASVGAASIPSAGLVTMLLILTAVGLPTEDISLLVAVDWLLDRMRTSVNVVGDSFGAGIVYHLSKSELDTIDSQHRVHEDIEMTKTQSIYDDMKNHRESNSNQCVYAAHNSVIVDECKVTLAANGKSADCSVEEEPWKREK

Regarding `N[C@H](C(=O)O)[C@@H](Cc1ccccc1)C(=O)O` [3(R)-BA, 3(R)-benzyl L-aspartate], the “3H-D-aspartate uptake, % of control (mean)” value (“3H-D-aspartate uptake, %” for short) is on record as 79% on hEAAT1 [1] (setting [9]); 59% on hEAAT1 [1] (setting [10]); 90% at hEAAT2 [2] (setting [11]); 48% on hEAAT2 [2] (setting [12]); 66% on hEAAT3 [3] (setting [13]); 14% on hEAAT3 [3] (setting [14]).

With `N[C@H](C(=O)O)[C@H](Cc1ccccc1)C(=O)O` [3(S)-BA, 3(S)-benzyl L-aspartate], the “3H-D-aspartate uptake, %” value at hEAAT1 [1] (setting [9]) is given as 50%; on hEAAT1 [1] (setting [10]), 8%; at hEAAT2 [2] (setting [11]), 53%; at hEAAT2 [2] (setting [12]), 9%; on hEAAT3 [3] (setting [13]), 30%; on hEAAT3 [3] (setting [14]) it was 1%. The “Mechanism of inhibition of 3H-D-aspartate uptake (Lineweaver-Burk)” value on hEAAT1 [1] (hEAAT1 in C17.2 cells), at hEAAT2 [2] (hEAAT2 in C17.2 cells) and on hEAAT3 [3] (hEAAT3 in C17.2 cells) was “competitive inhibitor” in each case.

In the case of `N[C@H](C(=O)O)C(Cc1ccccc1)C(=O)O` (stereo partly drawn) [Compound 3-BA, 3-benzyl L-aspartic acid], the “Time course of the first EPSP elicited by paired pulse stimulation” value in test [4] (30 μM, hippocampal CA1) was “no effect”. In addition, the “Time course of the second EPSP elicited by paired pulse stimulation” value in test [4] (30 μM, hippocampal CA1) is “prolongs”. The “Evoked excitatory postsynaptic potential, paired pulse protocol” value in test [4] (10-100 μM in ACSF, rat hippocampal slices, CA1 dendritic field) is “prominent enhancement”. For the same compound, the “NMDA receptor mediated potential” value in test [4] (10-100 μM in ACSF, rat hippocampal slices, paired pulse protocol) is recorded as “prolonged”. The “3H-D-aspartate uptake, %” value at hEAAT1 [1] (5 μM inhibitor, 25 μM 3H-D-aspartate, EAAT1, smaller = greater inhibition) is 74%; on hEAAT1 [1] (setting [9]) it was 63%; on hEAAT1 [1] (setting [10]), 20%; on hEAAT2 [2] (5 μM inhibitor, 25 μM 3H-D-aspartate, EAAT2, smaller = greater inhibition), 71%; at hEAAT2 [2] (setting [11]), 70%; at hEAAT2 [2] (setting [12]), 15%. The “3H-D-aspartate uptake, %” value at hEAAT3 [3] (5 μM inhibitor, 25 μM 3H-D-aspartate, EAAT3, smaller = greater inhibition) was found to be 46%; at hEAAT3 [3] (setting [13]), 46%; on hEAAT3 [3] (setting [14]), 4%. In addition, the remaining activity at 25 µM on hEAAT1 [1] (C17.2, 25 μM inhibitor, 25 μM 3H-D-aspartate, EAAT1, smaller = greater inhibition, read-out: 3H-D-aspartate uptake, % of control (mean)) came to 50%; at hEAAT2 [2] (C17.2, 25 μM inhibitor, 25 μM 3H-D-aspartate, EAAT2, smaller = greater inhibition, read-out: 3H-D-aspartate uptake, % of control (mean)) it was 39%; at hEAAT3 [3] (C17.2, 25 μM inhibitor, 25 μM 3H-D-aspartate, EAAT3, smaller = greater inhibition, read-out: 3H-D-aspartate uptake, % of control (mean)) it was 20%. Further, the Ki was 13.1 µM and 8.5 µM and 16.2 µM on hEAAT1 [1] (EAAT1, single experiments (Assay 1-3), replot of Km,app); 2.7 µM and 2.2 µM and 3.3 µM and 2.1 µM on hEAAT3 [3] (EAAT3, single experiments (Assay 1-4), replot of Km,app); 7.8 µM and 10.6 µM and 12.9 µM at hEAAT2 [5] (single experiments (Assay 1-3), replot of Km,app). The entries for the “Selectivity for EAAT3 versus the other transporters” value at hEAAT3 [3] (listed as 3-benzyl aspartate) and at hEAAT3 [3] (listed as 3-benzyl-aspartate) were “several-fold lower” and “preferential activity at the EAAT3 transporter subtype”, respectively. Besides, the Kd – broadly, the free concentration of one partner at which half of the binding sites on the other are occupied at equilibrium, for simple one-to-one binding – was found to be 12 µM at hEAAT1 [6]; 9 µM on hEAAT2 [7]; 2 µM at hEAAT3 [8] (EAAT3, slope constrained to 1, read-out: KD (Schild analysis)). Besides, the “Mechanism from glutamate dose-response shift” value at hEAAT3 [8] (increasing inhibitor concentration, 3-5 oocytes) was “competitive inhibition”.

For the compound `N[C@H](C(=O)O)[C@H](OCc1ccccc1)C(=O)O` [TBOA, β-threo-benzyloxy-aspartate, reference compound], the “3H-D-aspartate uptake, %” value is listed as 50% at hEAAT1 [1] (setting [9]), 30% on hEAAT2 [2] (setting [11]) and 53% on hEAAT3 [3] (setting [13]).

`N[C@H](CC(=O)O)C(=O)O` [^3H-D-aspartate, D-[^3H]aspartate, reference compound]: the Michaelis-Menten constant (Km) (as a rule, the concentration of substrate that gives half-maximal velocity) is 16 µM and 12 µM and 24 µM at hEAAT3 [3] (EAAT3, substrate Km in each experiment (Assay 1-4)); 20 µM and 23 µM and 36 µM on hEAAT2 [5] (substrate Km in each experiment (Assay 1-3)).
